Data set [1] in a line: N-acetyl serine and N-acetyl lysine reactivity. The note with it: HPLC. It counts as physicochemical. The protocol:
N-Acetyl Cysteine, N-Acetyl Lysine and N-Acetyl Serine Kinetic Studies. Assay was conducted as described with minor modifications.^81-84 Briefly, a 1 mM stock solution of NU-1 with internal standard (phenacetin) in DMSO was added to a 50 mM solution of either N-acetyl cysteine, N-acetyl lysine or N-acetyl serine in 67 mM phosphate buffer (pH 7.4), as well as added to a solution of 67 mM phosphate buffer (pH 7.4) control. Samples were taken every 2 min for 2 h and quenched immediately with MeOH and centrifuged upon sampling. Samples were placed on a Waters Acquity UPLC-MS system and measured for the ratio of NU-1 to internal standard intensity to calculate the amount of NU-1 present at each time point relative to the amount of NU-1 at the first injection of the compound in buffer. Assay was conducted in triplicate.

A further data set relates to MCF7 cells. Briefly: Cell viability (CellTiter-Glo), telomerase-positive cells. It is filed as cell-based, human. The note with it: Homo sapiens, read-out: IC50, loss of viability. The protocol: Cell Viability Measurements. MCF-7, HeLa, MDA-MB231 and A549 cells were cultured in DMEM media supplemented with 10% Fetal Bovine Serum (FBS), 1% pen/strep and with 5% CO2 and 37° C. Cells were plated in 96 well plates and allowed to attach for 24 h. Media was removed, and fresh media containing various concentrations of compound was added, and the plate was incubated for 24 h. The plate was removed from the incubator and allowed to equilibrate to room temperature for 30 min. 50 μl of freshly prepared CellTiter-Glo (Promega) reagent was added, and the plate was mixed on an orbital shaker for 10 min to induce cell lysis and stabilize luminescent signal. The luminescence was recorded on a PerkinElmer Enspire multimode plate reader.

The next data set relates to VA-13. Kind of data set: Cell viability, telomerase-negative cells. It is filed as cell-based. As to conditions: VA-13, up to 100 μM.
The target of data set [2] is T1, Human telomerase purified from telomerase-overexpressing HEK293T cells (Homo sapiens, UniProt O14746).
T1 construct: made in house; host or cells: HEK293T (telomerase-overexpressing)
T1 sequence (O14746 whole entry): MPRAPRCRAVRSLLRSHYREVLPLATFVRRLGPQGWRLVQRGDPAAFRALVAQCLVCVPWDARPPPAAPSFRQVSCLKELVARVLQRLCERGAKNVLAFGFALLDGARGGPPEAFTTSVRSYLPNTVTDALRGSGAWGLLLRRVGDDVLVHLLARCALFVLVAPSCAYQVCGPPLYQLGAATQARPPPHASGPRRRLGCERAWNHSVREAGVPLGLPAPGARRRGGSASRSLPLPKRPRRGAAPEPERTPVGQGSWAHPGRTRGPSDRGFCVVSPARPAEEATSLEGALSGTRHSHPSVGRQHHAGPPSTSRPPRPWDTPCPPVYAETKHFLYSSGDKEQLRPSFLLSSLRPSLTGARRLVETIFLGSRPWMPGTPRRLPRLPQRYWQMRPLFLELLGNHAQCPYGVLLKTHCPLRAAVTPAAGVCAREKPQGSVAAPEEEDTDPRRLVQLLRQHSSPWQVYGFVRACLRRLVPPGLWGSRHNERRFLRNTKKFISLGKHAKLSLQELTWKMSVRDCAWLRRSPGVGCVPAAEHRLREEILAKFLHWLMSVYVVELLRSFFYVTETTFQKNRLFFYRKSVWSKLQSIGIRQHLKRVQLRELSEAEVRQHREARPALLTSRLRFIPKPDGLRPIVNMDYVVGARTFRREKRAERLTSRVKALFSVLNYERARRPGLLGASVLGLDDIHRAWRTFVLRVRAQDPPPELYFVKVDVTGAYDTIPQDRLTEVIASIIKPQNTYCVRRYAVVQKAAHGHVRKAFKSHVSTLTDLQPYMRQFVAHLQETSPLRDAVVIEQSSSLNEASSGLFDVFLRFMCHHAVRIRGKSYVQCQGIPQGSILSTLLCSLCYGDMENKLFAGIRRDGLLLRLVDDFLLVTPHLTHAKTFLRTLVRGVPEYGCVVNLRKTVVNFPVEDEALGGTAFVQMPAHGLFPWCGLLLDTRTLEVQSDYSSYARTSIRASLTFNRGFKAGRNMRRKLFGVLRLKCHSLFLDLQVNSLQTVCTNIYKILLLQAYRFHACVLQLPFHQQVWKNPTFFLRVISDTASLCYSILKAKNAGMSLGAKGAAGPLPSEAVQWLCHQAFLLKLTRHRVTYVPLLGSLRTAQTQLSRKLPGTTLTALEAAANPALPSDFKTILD
T1 sequence (O60832 whole entry partner): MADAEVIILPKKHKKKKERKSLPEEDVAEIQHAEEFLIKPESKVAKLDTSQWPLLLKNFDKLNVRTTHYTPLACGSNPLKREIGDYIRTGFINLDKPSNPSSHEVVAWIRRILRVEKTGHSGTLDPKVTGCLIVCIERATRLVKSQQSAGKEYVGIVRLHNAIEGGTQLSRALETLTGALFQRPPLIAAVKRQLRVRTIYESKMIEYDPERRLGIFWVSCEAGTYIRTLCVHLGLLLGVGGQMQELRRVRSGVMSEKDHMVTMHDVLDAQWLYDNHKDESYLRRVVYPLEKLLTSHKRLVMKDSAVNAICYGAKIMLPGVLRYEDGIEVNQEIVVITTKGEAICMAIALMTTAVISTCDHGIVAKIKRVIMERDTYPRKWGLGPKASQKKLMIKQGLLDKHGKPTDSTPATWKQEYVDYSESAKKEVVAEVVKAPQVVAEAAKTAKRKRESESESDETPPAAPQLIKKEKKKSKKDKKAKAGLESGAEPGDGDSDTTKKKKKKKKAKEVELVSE
T1 sequence (Q9NPE3 whole entry partner): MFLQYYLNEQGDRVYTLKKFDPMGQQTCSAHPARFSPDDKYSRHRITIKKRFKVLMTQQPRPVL
T1 sequence (Q9NX24 whole entry partner): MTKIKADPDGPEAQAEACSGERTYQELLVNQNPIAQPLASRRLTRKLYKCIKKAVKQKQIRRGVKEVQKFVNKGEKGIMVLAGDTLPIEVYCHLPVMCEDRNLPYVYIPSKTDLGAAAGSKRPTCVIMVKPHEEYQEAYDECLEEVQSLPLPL
T1 sequence (Q9NY12 whole entry partner): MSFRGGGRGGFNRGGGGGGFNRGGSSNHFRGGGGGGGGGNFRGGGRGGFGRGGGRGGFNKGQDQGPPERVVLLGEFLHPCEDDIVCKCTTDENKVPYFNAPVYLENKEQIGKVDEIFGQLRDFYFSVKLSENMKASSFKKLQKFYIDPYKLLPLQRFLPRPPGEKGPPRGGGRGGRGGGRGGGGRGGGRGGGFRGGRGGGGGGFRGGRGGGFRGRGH
Briefly: Direct (non-PCR) primer extension telomerase activity assay, purified telomerase. It counts as biochemical. The note with it: purified telomerase. The protocol:
Primer-Extension Telomerase Activity Assays. […] ID NO: 1) (2 μM)].

The next data set deals with MCF-7 proteome. Kind of data set: Competitive gel imaging with 5-iodoacetamido-fluorescein (competitive ABPP). It is filed as binding, human. The note with it: 10 nM to 100 μM, 1 hr, then fluorescein-iodoacetamide 10 μM. The protocol: Competitive Gel Image Analysis. MCF-7 cells were cultured in DMEM media supplemented with 10% Fetal Bovine Serum (FBS), 1% pen/strep and with 5% CO2 and 37° C. Cells were plated cultured for 3 days. Flasks were rinsed twice with PBS and treated with 0.05% trypsin-EDTA (Thermo Fisher) to detach cells. The cell suspension was washed twice in PBS and the cell pellet was resuspended in 200 μl of M-PER extraction reagent (Thermo Fisher)/10^6 cells, and incubated for 30 min. Cell extracts were transferred to microcentrifuge tubes, 200 μl/tube, and centrifuged at 12,000×g for 20 min to remove cell debris. The corresponding lysate was then further diluted to a total protein concentration of 2 mg/mL as measured by Nanodrop (Thermo Fisher). 48 μL of MCF-7 lysate was added to twelve microcentrifuge tubes (six per compound), followed by treatment of cell lysate with 1 μL solution of NU-1/chrolactomycin (equating to doses ranging from 10 nM to 100 μM). The samples were incubated for 1 hr, followed by addition of 1 μl of 5-iodoacetamido-fluorescein to a final concentration of 10 μM. The samples were again incubated for 1 hr, followed by quenching the reaction with 15 μL NuPAGE LDS Sample Buffer (4×). […]

The test system of the next data set is MCF-7 cells. Briefly: Compound washout cell viability. As to conditions: washed, fresh media, 24 h. It is filed as cell-based, human. The protocol:
Compound Washout Cell Viability Measurements. MCF-7 cells were plated in 96 well plates and allowed to attach for 24 h. Media was removed, and fresh media containing various concentrations of compound was added, and the plate was incubated for 24 h. Media was removed, cells were washed 2 times with PBS, and fresh media without compound was added. Cells were incubated at 37° C. for an additional “X” h and analyzed as above. Note: “fresh” media constitutes media supplemented with 10% Fetal Bovine Serum (FBS) and 1% pen/strep that has not been previously used for cell culture (e.g., not conditioned media).

The next data set in a line: Lipophilicity. It is filed as physicochemical. The note with it: in words.
A further data set in a line: Plasma stability assay. It is filed as in vitro ADME. As to conditions: in words.
The next data set concerns the target T2, telomerase in MCF7 cells (Homo sapiens, UniProt O14746).
T2 construct: endogenous in cells; host or cells: MCF-7
Briefly: Compound washout TRAP analysis. It is filed as cell-based. The protocol: Compound Washout TRAP analysis. MCF-7 cells were plated in 96 well plates and allowed to attach for 24 h. Media was removed, and fresh media containing various concentrations of compound was added, and the plate was incubated for 24 h. Media was removed, cells were washed 2 times with PBS, and fresh media without compound was added. Cells were incubated at 37° C. for an additional “X” hours. […] The cell extract was then centrifuged at 12,000 g for 20 min at 4° C. to remove cell debris. Note: “fresh” media constitutes media supplemented with 10% Fetal Bovine Serum (FBS) and 1% pen/strep that has not been previously used for cell culture (e.g., not conditioned media”). TRAP analysis was conducted as above.

T2 sequence (O14746 whole entry): as the sequence (O14746 whole entry) above
T2 sequence (O60832 whole entry partner): as the sequence (O60832 whole entry partner) above
T2 sequence (Q9NPE3 whole entry partner): as the sequence (Q9NPE3 whole entry partner) above
T2 sequence (Q9NX24 whole entry partner): as the sequence (Q9NX24 whole entry partner) above
T2 sequence (Q9NY12 whole entry partner): as the sequence (Q9NY12 whole entry partner) above
T2 sequence (Q9BUR4 whole entry partner): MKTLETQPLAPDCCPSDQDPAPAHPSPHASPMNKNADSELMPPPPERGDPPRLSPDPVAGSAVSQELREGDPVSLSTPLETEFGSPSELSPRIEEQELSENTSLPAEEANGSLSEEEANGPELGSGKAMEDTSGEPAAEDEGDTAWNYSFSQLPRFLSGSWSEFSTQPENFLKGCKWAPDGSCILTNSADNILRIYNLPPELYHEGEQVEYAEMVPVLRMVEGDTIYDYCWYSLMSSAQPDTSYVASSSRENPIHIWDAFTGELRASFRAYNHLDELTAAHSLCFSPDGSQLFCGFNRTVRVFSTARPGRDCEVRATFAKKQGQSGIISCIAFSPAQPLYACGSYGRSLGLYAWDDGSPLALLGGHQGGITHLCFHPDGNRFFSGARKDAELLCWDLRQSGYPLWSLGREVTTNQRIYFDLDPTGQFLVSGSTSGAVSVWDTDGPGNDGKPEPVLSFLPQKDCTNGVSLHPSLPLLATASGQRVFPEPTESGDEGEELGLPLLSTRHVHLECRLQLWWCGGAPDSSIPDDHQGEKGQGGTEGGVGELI

Consider `C=C1C(=O)[C@](C)(C(=O)OC)[C@H](CCc2cn(Cc3ccc(F)cc3F)nn2)O[C@@H]1C` [NU-1, methyl (2S,3R,6R)-2-(2-(1-(2,4-difluorobenzyl)-1H-1,2,3-triazol-4-yl)ethyl)-3,6-dimethyl-5 methylene-4-oxotetrahydro-2H-pyran-3-carboxylate], for which, in data set [1], the amino acid adducts entry was “No amino acid adducts were found”. In the data set on MCF7 cells, the IC50 turned out to be 27 µM. In addition, in the data set on VA-13, the effect on viability result is “did not affect viability”. Besides, in data set [2] (100 μM), the “time to complete inhibition” value is on record as ~6 h. Moreover, the “inhibition of telomere repeat synthesis” value in [2] (in words) is “low-micromolar range”. In addition, the “off-target protein labeling (loss of protein banding)” value in the data set with MCF-7 proteome was “minimal loss of protein banding and streaking”. The viability after washout entry in the data set on MCF-7 cells was “did not restore”. Further, the lipophilicity result in “Lipophilicity” is “favorable”. Moreover, the plasma stability entry in “Plasma stability assay” is “satisfactory performance”. In addition, the “telomerase activity after washout” value is on record as “remained blocked” at telomerase in MCF7 cells (MCF7 cells washed, 4 h recovery) and “did not restore” on telomerase in MCF7 cells (washed, fresh media, 24 h).

For orientation: IC50 means the concentration that gives 50% inhibition.

The values above are taken from US11518750B2, “3-methylideneoxan-4-one compounds and substituted derivatives thereof as inhibitors of telomerase” (NORTHWESTERN UNIVERSITY, priority 2019, dated 2022).
